Read-outs that look alike come from different tables or passages of the source.
Key:
non-expressing oocytes [1] = type: cell-based, Xenopus laevis; conditions: non-expressing oocytes, total [3H]CQ transport, normalised to the oocyte type control
Method in brief: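 Oocytes (ten per treatment, ≥4 independent frogs/days) were preloaded by injecting VF-6 in 25 nL ND96 at pH 5.0, 5.5, 6.0 or 7.0, or Na^+-free choline buffer, then uptake run 1.5 h, 27.5 °C, ND96 pH 5.5 by default. Internal concentrations assumed ~400 nL oocyte volume.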

PfCRT^Ecu1110 [2] = biological target: T1, PfCRT^Ecu1110 (Plasmodium falciparum, UniProt Q9N623, A220S/I356L/K76T/N326D); assay: [3H]CQ uptake into Xenopus oocytes, cis-inhibition by unlabelled solute; type: cell-based; conditions: for Uptake of [3H]CQ (% PfCRTEcu1110 control), cis-inhibition / PfCRT-mediated [3H]CQ transport, cis-inhibition (% PfCRTEcu1110 control): PfCRTEcu1110 oocytes; for Uptake of [3H]CQ (% PfCRTEcu1110 control), cis-inhibition: total [3H]CQ transport, normalised to the oocyte type control; for PfCRT-mediated [3H]CQ transport, cis-inhibition (% PfCRTEcu1110 control): background [3H]CQ accumulation subtracted, normalised to oocyte type control
T1 sequence (Q9N623 whole entry A220S/I356L/K76T/N326D): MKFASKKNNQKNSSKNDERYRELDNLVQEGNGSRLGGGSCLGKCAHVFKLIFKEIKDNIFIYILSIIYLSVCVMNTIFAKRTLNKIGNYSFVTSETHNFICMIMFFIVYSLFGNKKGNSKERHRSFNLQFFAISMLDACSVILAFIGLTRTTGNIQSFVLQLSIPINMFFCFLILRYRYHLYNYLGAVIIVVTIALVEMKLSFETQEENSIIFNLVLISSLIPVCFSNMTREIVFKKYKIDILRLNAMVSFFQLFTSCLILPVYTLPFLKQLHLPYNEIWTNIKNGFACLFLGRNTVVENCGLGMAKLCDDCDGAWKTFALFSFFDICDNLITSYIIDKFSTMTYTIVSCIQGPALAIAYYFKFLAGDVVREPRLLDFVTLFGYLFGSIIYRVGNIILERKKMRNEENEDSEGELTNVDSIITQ
Method in brief: (§1)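 PfCRT-expressing and control oocytes: ND96 pH 5.5 → 1.5 h at 27.5 °C → ice-cold ND96 wash → 10% SDS lysis → scintillation count.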

PfCRT^Dd2 [3] = biological target: T2, PfCRT^Dd2 (Plasmodium falciparum, UniProt Q9N623, A220S/I356T/K76T/M74I/N326S/N75E/Q271E/R371I); assay: as above; type: cell-based; conditions: PfCRTDd2 oocytes, background [3H]CQ accumulation subtracted, normalised to oocyte type control
T2 sequence (Q9N623 whole entry A220S/I356T/K76T/M74I/N326S/N75E/Q271E/R371I): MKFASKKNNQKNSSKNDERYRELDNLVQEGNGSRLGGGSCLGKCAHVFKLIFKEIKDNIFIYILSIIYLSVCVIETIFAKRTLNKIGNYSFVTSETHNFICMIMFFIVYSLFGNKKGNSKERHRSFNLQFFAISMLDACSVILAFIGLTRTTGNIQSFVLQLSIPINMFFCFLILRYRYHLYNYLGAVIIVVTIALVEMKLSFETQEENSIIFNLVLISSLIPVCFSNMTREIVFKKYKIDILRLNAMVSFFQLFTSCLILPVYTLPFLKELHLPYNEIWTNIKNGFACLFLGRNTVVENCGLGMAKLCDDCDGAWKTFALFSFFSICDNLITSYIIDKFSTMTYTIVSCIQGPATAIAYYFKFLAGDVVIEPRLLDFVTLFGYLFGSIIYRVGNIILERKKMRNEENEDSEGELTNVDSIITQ
Method in brief: as §1

PfNT1 = biological target: T3, PfNT1 (Plasmodium falciparum, UniProt Q8IDM6); assay: cell-based; type: cell-based; conditions: PfNT1 oocytes, total [3H]CQ transport, normalised to the oocyte type control
T3 construct: expressed in transfected cells; host or cells: Xenopus laevis oocytes (stage V-VI), cRNA-injected
T3 sequence (Q8IDM6 whole entry): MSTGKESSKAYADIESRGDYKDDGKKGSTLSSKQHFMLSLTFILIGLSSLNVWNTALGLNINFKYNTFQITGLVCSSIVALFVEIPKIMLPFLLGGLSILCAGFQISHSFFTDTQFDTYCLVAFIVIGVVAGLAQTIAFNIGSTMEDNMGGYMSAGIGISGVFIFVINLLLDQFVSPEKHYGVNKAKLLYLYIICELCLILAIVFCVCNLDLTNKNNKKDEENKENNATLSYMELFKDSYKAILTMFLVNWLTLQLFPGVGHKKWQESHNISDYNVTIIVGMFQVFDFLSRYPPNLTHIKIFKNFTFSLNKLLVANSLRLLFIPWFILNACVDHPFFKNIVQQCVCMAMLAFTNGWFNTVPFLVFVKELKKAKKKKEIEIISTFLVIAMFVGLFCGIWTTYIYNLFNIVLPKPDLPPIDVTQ
Method in brief: (§2)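 Transport measured in Xenopus oocytes expressing the transporters, 1.5 h at 27.5 °C in ND96 pH 5.5 unless noted. For trans-stimulation, VF-6 injected in 25 nL ND96 at pH 5.0–7.0 or Na^+-free (choline) buffer; intracellular levels based on ~400 nL oocyte volume. Ten oocytes per treatment, ≥4 experiments.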

PfCRT^3D7 [4] = biological target: T4, PfCRT^3D7 (Plasmodium falciparum, UniProt Q8IBZ9); assay: cell-based; type: cell-based; conditions: for Uptake of [3H]CQ (% PfCRT3D7 control), trans-stimulation / PfCRT-mediated [3H]CQ transport, trans-stimulation (% PfCRT3D7 control): PfCRT3D7 oocytes; for Uptake of [3H]CQ (% PfCRT3D7 control), trans-stimulation: total [3H]CQ transport, normalised to the oocyte type control; for PfCRT-mediated [3H]CQ transport, trans-stimulation (% PfCRT3D7 control): normalised to oocyte type control
T4 sequence (Q8IBZ9 59-398): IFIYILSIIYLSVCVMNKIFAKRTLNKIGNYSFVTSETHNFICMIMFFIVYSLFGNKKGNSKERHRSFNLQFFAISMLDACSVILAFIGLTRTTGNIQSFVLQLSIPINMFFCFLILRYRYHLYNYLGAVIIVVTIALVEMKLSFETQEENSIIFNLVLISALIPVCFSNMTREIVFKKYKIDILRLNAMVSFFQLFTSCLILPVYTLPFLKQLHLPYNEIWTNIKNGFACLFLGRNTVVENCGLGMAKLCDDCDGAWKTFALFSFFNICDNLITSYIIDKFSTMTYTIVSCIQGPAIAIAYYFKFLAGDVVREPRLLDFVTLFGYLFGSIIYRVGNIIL
Method in brief: as §2

PfCRT^Ecu1110 [5] = biological target: T1, PfCRT^Ecu1110; assay: cell-based; type: cell-based; conditions: for PfCRT-mediated [3H]CQ transport, trans-stimulation (% PfCRTEcu1110 control): normalised to oocyte type control; for [3H]CQ transport (% PfCRTDd2 control), trans-stimulation, PfCRTEcu1110: PfCRT-mediated component (background subtracted), sheet title says normalised to PfCRTDd2 control, mean ± SEM, SEM
Method in brief: as §2

PfCRT^Dd2 [6] = biological target: T2, PfCRT^Dd2; assay: cell-based; type: cell-based; conditions: for Uptake of [3H]CQ (% PfCRTDd2 control), trans-stimulation / PfCRT-mediated [3H]CQ transport, trans-stimulation (% PfCRTDd2 control): PfCRTDd2 oocytes; for Uptake of [3H]CQ (% PfCRTDd2 control), trans-stimulation: total [3H]CQ transport, normalised to the oocyte type control; for PfCRT-mediated [3H]CQ transport, trans-stimulation (% PfCRTDd2 control): normalised to oocyte type control; for [3H]CQ transport (% PfCRTDd2 control), trans-stimulation, PfCRTDd2: PfCRT-mediated component (background subtracted), mean ± SEM, SEM
Method in brief: as §2

non-expressing oocytes [7] = assay: cells; type: cell-based, Xenopus laevis; conditions: non-expressing oocytes, total [3H]CQ transport, normalised to the oocyte type control
Method in brief: as §1

PfCRT^3D7 [8] = biological target: T4, PfCRT^3D7; assay: cell-based; type: cell-based; conditions: PfCRT3D7 oocytes, total [3H]CQ transport, normalised to the oocyte type control
Method in brief: as §1

[9] = [test solute]i = 45 mM (30 mM for some solutes due to solubility)
[10] = [test solute]i = 5 mM (intracellular)
[11] = [test solute]i = 45 mM (intracellular; 30 mM for some solutes due to solubility)
[12] = [test solute]i = 5 mM (injected)

## HVDD [HD-4]
non-expressing oocytes [1]; [test solute]i = 5 mM
  Uptake of [3H]CQ (% non-expressing oocyte control), trans-stimulation: 100 ± 3.6 % non-expressing oocyte control
non-expressing oocytes [1]; [9]
  Uptake of [3H]CQ (% non-expressing oocyte control), trans-stimulation: 98 ± 3.3 % non-expressing oocyte control
PfCRT^Ecu1110 [2]; [test solute] = 0.5 mM
  Uptake of [3H]CQ (% PfCRTEcu1110 control), cis-inhibition: 53 ± 8.3 % PfCRTEcu1110 control
  PfCRT-mediated [3H]CQ transport, cis-inhibition (% PfCRTEcu1110 control): 49 ± 1.4 % PfCRTEcu1110 control
PfCRT^Ecu1110 [2]; [test solute] = 1 mM
  Uptake of [3H]CQ (% PfCRTEcu1110 control), cis-inhibition: 44 ± 6.1 % PfCRTEcu1110 control
  PfCRT-mediated [3H]CQ transport, cis-inhibition (% PfCRTEcu1110 control): 39 ± 3.1 % PfCRTEcu1110 control
PfCRT^Ecu1110 [2]; [test solute] = 2 mM
  Uptake of [3H]CQ (% PfCRTEcu1110 control), cis-inhibition: 32 ± 4.7 % PfCRTEcu1110 control
  PfCRT-mediated [3H]CQ transport, cis-inhibition (% PfCRTEcu1110 control): 28 ± 1.3 % PfCRTEcu1110 control
PfCRT^Ecu1110 [2]; cis-inhibition, [test solute] = 2 mM, PfCRT-mediated component (background subtracted), sheet title says normalised to PfCRTDd2 control, mean ± SEM, SEM
  [3H]CQ transport (% PfCRTEcu1110 control), cis-inhibition, PfCRTEcu1110: 9.0 ± 0.03 % PfCRTEcu1110 control
PfCRT^Dd2 [3]; [test solute] = 0.5 mM
  PfCRT-mediated [3H]CQ transport, cis-inhibition (% PfCRTDd2 control): 44 ± 2.3 % PfCRTDd2 control
PfCRT^Dd2 [3]; [test solute] = 1 mM
  PfCRT-mediated [3H]CQ transport, cis-inhibition (% PfCRTDd2 control): 31 ± 1.0 % PfCRTDd2 control
PfCRT^Dd2 [3]; [test solute] = 2 mM
  PfCRT-mediated [3H]CQ transport, cis-inhibition (% PfCRTDd2 control): 19 ± 0.8 % PfCRTDd2 control
PfNT1; [test solute]i = 5 mM
  Uptake of [3H]CQ (% PfNT1 control), trans-stimulation: 100 ± 2.7 % PfNT1 control
PfNT1; [9]
  Uptake of [3H]CQ (% PfNT1 control), trans-stimulation: 99 ± 2.5 % PfNT1 control
PfCRT^3D7 [4]; [test solute]i = 5 mM
  Uptake of [3H]CQ (% PfCRT3D7 control), trans-stimulation: 98 ± 4.1 % PfCRT3D7 control
PfCRT^3D7 [4]; [9]
  Uptake of [3H]CQ (% PfCRT3D7 control), trans-stimulation: 96 ± 1.7 % PfCRT3D7 control
PfCRT^3D7 [4]; SEM
  [3H]CQ transport (% PfCRT3D7 control), trans-stimulation, PfCRT3D7: 0.1 ± 0.01
PfCRT^3D7 [4]; [10]
  PfCRT-mediated [3H]CQ transport, trans-stimulation (% PfCRT3D7 control): 96 ± 3.3 % PfCRT3D7 control
PfCRT^3D7 [4]; [11]
  PfCRT-mediated [3H]CQ transport, trans-stimulation (% PfCRT3D7 control): 94 ± 4.9 % PfCRT3D7 control
PfCRT^Ecu1110 [5]; PfCRTEcu1110 oocytes, [test solute]i = 45 mM (30 mM for some solutes due to solubility), total [3H]CQ transport, normalised to the oocyte type control
  Uptake of [3H]CQ (% PfCRTEcu1110 control), trans-stimulation: 99 ± 3.2 % PfCRTEcu1110 control
PfCRT^Ecu1110 [5]; [test solute]i = 5 mM (intracellular), PfCRTEcu1110 oocytes
  PfCRT-mediated [3H]CQ transport, trans-stimulation (% PfCRTEcu1110 control): 99 ± 4.9 % PfCRTEcu1110 control
PfCRT^Ecu1110 [5]; [test solute]i = 45 mM (intracellular; 30 mM for some solutes due to solubility), PfCRTEcu1110 oocytes
  PfCRT-mediated [3H]CQ transport, trans-stimulation (% PfCRTEcu1110 control): 97 ± 4.8 % PfCRTEcu1110 control
PfCRT^Ecu1110 [5]; [12]
  [3H]CQ transport (% PfCRTDd2 control), trans-stimulation, PfCRTEcu1110: 30 ± 1.6 % PfCRTEcu1110 control
PfCRT^Ecu1110 [5]; [9]
  [3H]CQ transport (% PfCRTDd2 control), trans-stimulation, PfCRTEcu1110: 29 ± 1.5 % PfCRTEcu1110 control
PfCRT^Dd2 [6]; [test solute]i = 5 mM
  Uptake of [3H]CQ (% PfCRTDd2 control), trans-stimulation: 99 ± 4.3 % PfCRTDd2 control
PfCRT^Dd2 [6]; [9]
  Uptake of [3H]CQ (% PfCRTDd2 control), trans-stimulation: 100 ± 2.4 % PfCRTDd2 control
  [3H]CQ transport (% PfCRTDd2 control), trans-stimulation, PfCRTDd2: 98 ± 3.9 % PfCRTDd2 control
PfCRT^Dd2 [6]; [10]
  PfCRT-mediated [3H]CQ transport, trans-stimulation (% PfCRTDd2 control): 97 ± 2.9 % PfCRTDd2 control
PfCRT^Dd2 [6]; [11]
  PfCRT-mediated [3H]CQ transport, trans-stimulation (% PfCRTDd2 control): 98 ± 3.9 % PfCRTDd2 control
PfCRT^Dd2 [6]; [12]
  [3H]CQ transport (% PfCRTDd2 control), trans-stimulation, PfCRTDd2: 97 ± 2.9 % PfCRTDd2 control
non-expressing oocytes [7]; [test solute] = 0.5 mM
  Uptake of [3H]CQ (% non-expressing oocyte control), cis-inhibition: 99 ± 5.3 % non-expressing oocyte control
non-expressing oocytes [7]; [test solute] = 1 mM
  Uptake of [3H]CQ (% non-expressing oocyte control), cis-inhibition: 100 ± 5.2 % non-expressing oocyte control
non-expressing oocytes [7]; [test solute] = 2 mM
  Uptake of [3H]CQ (% non-expressing oocyte control), cis-inhibition: 97 ± 5.5 % non-expressing oocyte control
PfCRT^3D7 [8]; [test solute] = 0.5 mM
  Uptake of [3H]CQ (% PfCRT3D7 control), cis-inhibition: 100 ± 3.8 % PfCRT3D7 control
PfCRT^3D7 [8]; [test solute] = 1 mM
  Uptake of [3H]CQ (% PfCRT3D7 control), cis-inhibition: 102 ± 3.7 % PfCRT3D7 control
PfCRT^3D7 [8]; [test solute] = 2 mM
  Uptake of [3H]CQ (% PfCRT3D7 control), cis-inhibition: 99 ± 3.6 % PfCRT3D7 control

Source: article PMC7413254 (Nature Communications, 2020)
